As a reminder, the IC50 is the concentration that gives 50% inhibition.

SMILES strings stand for the structures.

The source of these data is US20170253601A1, “Substituted Pyrrolidine Compounds” (EPIZYME, INC., priority 2014, published 2017).

For the first assay, the target named is T1, SMYD2 (Homo sapiens, UniProt Q9NRG4).
T1 construct: Full length SMYD2 (NP 064582.2) was cloned; His6 (N, cleaved yes); FLAG (N); made in house; host or cells: Sf9 insect cells
T1 sequence (Q9NRG4 whole entry): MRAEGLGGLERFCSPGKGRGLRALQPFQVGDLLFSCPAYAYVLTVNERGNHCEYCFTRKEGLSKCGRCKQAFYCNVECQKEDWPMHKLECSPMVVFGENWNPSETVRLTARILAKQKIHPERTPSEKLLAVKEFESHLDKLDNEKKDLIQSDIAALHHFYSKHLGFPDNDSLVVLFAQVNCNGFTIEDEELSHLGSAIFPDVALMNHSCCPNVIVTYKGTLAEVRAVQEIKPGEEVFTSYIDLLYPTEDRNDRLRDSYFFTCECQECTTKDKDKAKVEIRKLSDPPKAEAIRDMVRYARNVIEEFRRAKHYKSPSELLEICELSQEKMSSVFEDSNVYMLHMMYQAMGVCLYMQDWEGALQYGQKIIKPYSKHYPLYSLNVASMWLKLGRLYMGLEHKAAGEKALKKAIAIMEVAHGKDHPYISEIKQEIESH
Description: SMYD2 Biochemical Assay (3H-SAM, biotinylated peptide substrate, Flashplate). Particulars: IC50 values are an average of n = 1 to n = 50; read-out: SMYD2 Biochem IC50 (μM)*. An excerpt:
S-adenosylmethionine (SAM), S-adenosylhomocysteine (SAH), bicine, Tween20, dimethylsulfoxide (DMSO), bovine skin gelatin (BSG), and Tris(2-carboxyethyl)phosphine hydrochloride (TCEP) were purchased from Sigma-Aldrich at the highest level of purity possible. ^3H-SAM was purchase from American Radiolabeled Chemicals with a specific activity of 80 Ci/mmol. 384-well streptavidin Flashplates were purchased from PerkinElmer.
Peptide was synthesized with a N-terminal linker-affinity tag motif and a C-terminal amide cap by 21st Century Biochemicals. The peptide was high-performance liquid chromatography (HPLC) purified to greater than 95% purity and confirmed by liquid chromatography mass spectrometry (LC-MS). The sequence was […](K-Biot)-amide. (SEQ ID No: 3)
Full length SMYD2 (NP 064582.2) was cloned into a pFastbac-Htb-lic vector with an N-terminal His6 tag and FLAG tag, preceded by a TEV protease cleavage site. The protein was expressed in Sf9 insect cells. Cells were resuspended in lysis buffer (25 mM HEPES-NaOH, pH 7.5, 200 mM NaCl, 5% glycerol, and 5 mM β-ME) and lysed by sonication. The protein was purified by Ni-NTA (Qiagen), followed by TEV cleavage to remove the His6 tag, subtractive Ni-NTA (Qiagen), and gel filtration chromatography using an […] (GE Healthcare). Purified protein was stored in 20 mM Tris-HCl, pH 8.0, 100 mM NaCl, and 1 mM TCEP.
The assays were all performed in a buffer consisting of 20 mM Bicine (pH=7.6), 1 mM TCEP, 0.005% Bovine Skin Gelatin, and 0.002% Tween20, prepared on the day of use. Compounds in 100% DMSO (1 ul) were spotted into a polypropylene 384-well V-bottom plates (Greiner) using a Platemate Plus outfitted with a 384-channel head (Thermo Scientific). DMSO (1 ul) was added to Columns 11, 12, 23, 24, rows A-H for the maximum signal control and 1 ul of SAH, a known product and inhibitor of SMYD2, was added to columns 11, 12, 23, 24, rows I-P for the minimum signal control. A cocktail (40 ul) containing the SMYD2 enzyme was added by Multidrop Combi (Thermo-Fisher). The compounds were allowed to incubate with SMYD2 for 30 min at room temperature, then a cocktail (10 ul) containing ^3H-SAM and peptide was added to initiate the reaction (final volume=51 ul). The final concentrations of the components were as follows: SMYD2 was 1.5 nM, ^3H-SAM was 10 nM, and peptide was 60 nM, SAH in the minimum signal control wells was 1000 uM, and the DMSO concentration was 2%. The assays were stopped by the addition of non-radioactive SAM (10 ul) to a final concentration of 600 uM, which dilutes the ^3H-SAM to a level where its incorporation into the peptide substrate is no longer detectable. 50 ul of the reaction in the 384-well polypropylene plate was then transferred to a 384-well Flashplate and the biotinylated peptides were allowed to bind to the streptavidin surface for at least 1 hour before being washed three times with 0.1% Tween20 in a Biotek ELx405 plate washer. The plates were then read in a PerkinElmer TopCount plate reader to measure the quantity of ^3H-labeled peptide bound to the Flashplate surface, measured as disintegrations per minute (dpm) or alternatively, referred to as counts per minute (cpm).
Where dpm=disintegrations per minute, cmpd=signal in assay well, and min and max are the respective minimum and maximum signal controls.
Where top and bottom are the normally allowed to float, but may be fixed at 100 or 0 respectively in a 3-parameter fit. The Hill Coefficient normally allowed to float but may also be fixed at 1 in a 3-parameter fit. I is the compound concentration.
SMYD2 biochemical assay data for representative Compounds of the Disclosure are presented in Tables 1-3 in the column titled “SMYD2 Biochem IC50 (μM).”
In the case of `Cc1ccc2[nH]cc(CN3C[C@H](C)[C@H](NC(=O)c4cc(C5CC5)on4)C3)c2c1` (racemic) [compound 214, (±)-cis-5-cyclopropyl-N-[4-methyl-1-[(5-methyl-1H-indol-3-yl)methyl]pyrrolidin-3-yl]-1,2-oxazole-3-carboxamide], the IC50 was 29.5 µM.

With `C[C@@H]1CN(CCC2CCNCC2)C[C@H]1NC(=O)c1cc(C2CC2)on1` (racemic) [compound 133, (±)-trans-5-cyclopropyl-N-[4-methyl-1-[2-(piperidin-4-yl)ethyl]pyrrolidin-3-yl]-1,2-oxazole-3-carboxamide], the IC50 was more than 50 µM.

For the compound `CC(=O)Nc1ccccc1N1C[C@H](C)[C@H](NC(=O)c2cc(C3CC3)on2)C1` (racemic) [compound 335, (±)-cis-5-cyclopropyl-N-[1-(2-acetamido-phenyl)-4-methylpyrrolidin-3-yl]-1,2-oxazole-3-carboxamide], the IC50 is more than 50 µM.

For `O=C(N[C@@H]1CN(C2CC2)C[C@H]1CO)c1cc(C2CC2)on1` [compound 168, 5-cyclopropyl-N-[(3S,4R)-1-cyclopropyl-4-(hydroxymethyl)pyrrolidin-3-yl]-1,2-oxazole-3-carboxamide], the IC50 came out at 43.2 µM.

In the case of `C[C@@H]1CN(c2ccccc2)C[C@H]1NC(=O)c1cc(C2CC2)on1` (racemic) [compound 296, (±)-trans-5-cyclopropyl-N-(4-methyl-1-phenyl-pyrrolidin-3-yl)-1,2-oxazole-3-carboxamide], the IC50 is more than 50 µM.

`CC(C)N1C[C@H](C)[C@H](NC(=O)c2cc(C(F)F)on2)C1` (racemic) [compound 300, (±)-cis-5-(difluoro-methyl)-N-[4-methyl-1-(propan-2-yl)pyrrolidin-3-yl]-1,2-oxazole-3-carboxamide]: the IC50 is 9.59 µM.

Turning to `C[C@@H]1CN(CC2CCN(C(=O)OC(C)(C)C)CC2)C[C@H]1NC(=O)c1cc(C2CC2)on1` (racemic) [compound 255, (±)-trans-tert-butyl 4-{[3-(5-cyclopropyl-1,2-oxazole-3-amido)-4-methylpyrrolidin-1-yl]methyl}piperidine-1-carboxylate], the IC50 was more than 50 µM.

As to `C[C@H]1CN(CC(N)=O)C[C@H]1NC(=O)c1cc(C2CC2)on1` (racemic) [compound 303, (±)-cis-N-[1-(carbamoyl-methyl)-4-methyl-pyrrolidin-3-yl]-5-cyclo-propyl-1,2-oxazole-3-carboxamide], the IC50 was more than 50 µM.

For `C[C@@H]1CN(Cc2ccc3nonc3c2)C[C@H]1NC(=O)c1cc(C2CC2)on1` [compound 182, N-[(3S,4R)-1-(2,1,3-benzoxadiazol-5-ylmethyl)-4-methyl-pyrrolidin-3-yl]-5-cyclopropyl-1,2-oxazole-3-carboxamide], the IC50 was more than 50 µM.

The same assay, now with this note: Table 1; average of n = 1 to n = 50; read-out: SMYD2 Biochem IC50.
As to `C[C@H]1CN(C2CC2)C[C@H]1NC(=O)c1cc(C2CC2)no1` (racemic) [compound 51, (±)-cis-3-cyclopropyl-N-(1-cyclopropyl-4-methylpyrrolidin-3-yl)isoxazole-5-carboxamide], the IC50 came out at 7.9 µM.

Staying with this assay, now noted: Table 2; average of n = 1 to n = 50; read-out: SMYD2 Biochem IC50.
Regarding `C[C@@H]1CN(Cc2ccccn2)C[C@H]1NC(=O)c1cc(C2CC2)on1` (racemic) [compound 87, (±)-trans-5-cyclopropyl-N-(4-methyl-1-(pyridin-2-ylmethyl)pyrrolidin-3-yl)isoxazole-3-carboxamide], the IC50 is more than 50 µM.

Take `C[C@@H]1CN(C2CCCC2)C[C@H]1NC(=O)c1cc(C2CC2)on1` (racemic) [compound 99, (±)-trans-N-(1-cyclopentyl-4-methylpyrrolidin-3-yl)-5-cyclopropylisoxazole-3-carboxamide]: the IC50 was 48.7 µM.

Regarding `C[C@H]1CN(S(=O)(=O)C2CCNCC2)C[C@@H]1NC(=O)c1cc(C2CC2)on1` (racemic) [compound 91, (±)-trans-5-cyclopropyl-N-(4-methyl-1-(piperidin-4-ylsulfonyl)pyrrolidin-3-yl)isoxazole-3-carboxamide], the IC50 is more than 50 µM.
